Results from patent US20200281208A1 (ISAGRO S.p.A., priority 2015, published 2020).
Read-outs that look alike come from different tables or passages of the source.

Tests used:
Format in all cases: in vivo
[1] = system: Pseudomonas syringae pv tomato; experiment: Biological evaluation of cupric salts of carboxylic acids on Pseudomonas syringae pv tomato, tomato plants in cold greenhouse (Example 10, comparative); details: 250 ppm a.i., survey 7 days after infection/treatment, 10 plants per plot
Description: Biological Evaluation of Cupric Salts of Carboxylic Acids on Pseudomonas syringae pv tomato
A comparison was effected between the bactericidal activity of various cupric salts of carboxylic acids described in patent application US2009/136581 with that of crystalline foiin 1.
(§1) The day after application, the plants were infected with a suspension of bacterial cells previously cultivated in Nutrient Broth culture broth, at a bacterium-broth concentration of 1:4.
(§2) The inoculum, kept under stirring for 2 days, was sprayed on the plants in the morning, in guttation phase, with knapsack sprayers.
(§3) Visual surveys were effected 7 days after each infection/treatment, analyzing 10 plants per plot, analyzing the percentage of leaf surface affected.

Tomato plants = experiment: Phytotoxicity on treated tomato plants (Example 10, comparative); details: 250 ppm a.i.
Description: as §3

[2] = system: Pseudomonas syringae pv tomato; details: survey 7 days after infection/treatment; for Leaf surface affected (%): tomato plants
Description: Biological Evaluation of the […] of […] on Pseudomonas syringae pv tomato
In the above table, SC is an abbreviation of “concentrated aqueous suspension” and TQ of “as such”.
as §1, §2
Visual surveys were effected 7 days after each infection/treatment, analyzing 50 plants per plot, analyzing the percentage of plants infected and the percentage of leaf surface affected.

O=C(O)CCCC(=O)O.[Cu] [Copper glutarate]
Leaf surface affected (%) [1]: 69%
Phytotoxicity (%) (Tomato plants): 0%

O=C(O)CC(O)C(=O)O.[Cu] (centres unmarked) [Copper malate]
Leaf surface affected (%) [1]: 5%
Phytotoxicity (%) (Tomato plants): 20%

O=C(O)CCC(=O)O.[Cu] [Copper succinate]
Leaf surface affected (%) [1]: 50%
Phytotoxicity (%) (Tomato plants): 0%

O=C([O-])C(O)C(O)C(=O)[O-].[Cu+2] (centres unmarked) [Copper tartrate]
Leaf surface affected (%) [1]: 69%
Phytotoxicity (%) (Tomato plants): 0%

[Cu+2].[OH-].[OH-] [Cu(OH)2, copper hydroxide]
Quantity infected plants (%) ([2]; 6.25 g a.i./100 l): 37.5%
Quantity infected plants (%) ([2]; 12.5 g a.i./100 l): 35.7%
Quantity infected plants (%) ([2]; 25 g a.i./100 l, 500 l per hectare, 50 plants per plot): 31.0%
Leaf surface affected (%) ([2]; 6.25 g a.i./100 l): 3.4%
Leaf surface affected (%) ([2]; 12.5 g a.i./100 l): 4.9%
Leaf surface affected (%) ([2]; 25 g a.i./100 l, 500 l per hectare): 3.9%

O=C(O)c1ccccc1O [Salicylic acid]
Quantity infected plants (%) ([2]; 13.6 g a.i./100 l): 40.7%
Quantity infected plants (%) ([2]; 27.2 g a.i./100 l): 31.5%
Quantity infected plants (%) ([2]; 54.2 g a.i./100 l): 36.3%
Leaf surface affected (%) ([2]; 13.6 g a.i./100 l): 4.7%
Leaf surface affected (%) ([2]; 27.2 g a.i./100 l): 3.9%
Leaf surface affected (%) ([2]; 54.2 g a.i./100 l): 3.5%
